According to publication PMC11784183, “Identification of an antibiotic from an HTS targeting EF-Tu:tRNA interaction: a prospective topical treatment for MRSA skin infections” (Applied and Environmental Microbiology, 2024):

Settings: mouse, in vivo, ip, 10 mg/kg

CC[C@@H]1Cc2cc(O)ccc2C2=C1c1ccc(O)cc1C[C@H]2CC [MGC-10]
passage of the blood brain barrier: did not pass the blood brain barrier
